Measured values as given in patent US20080176787A1, “Parathyroid hormone analogues and methods of use” (priority 2005, published 2008).
Positions of bridges follow the written chain, without caps; N, C: chain ends. Residues, ends and D or L forms follow the SMILES beside them.

Legend:
[1] = test system: Gonad intact young Cynomolgus monkeys; assay: 6-week daily study in gonad intact young cynomolgus monkeys: % cortical porosity; assay type: in vivo; settings: Tibial Mid-Diaphysis, 6 weeks
Description: Comparative data regarding increase in cortical bone porosity in monkey subjects using Ostabolin C at a variety of doses and using the prior art PTHs 1-34 is shown below.

Toxicity, 12 mth monkey = assay type: in vivo; settings: in vivo; Ostabolin C, 12 mth monkey
Description: (§1) A NoAEL was not established for the monkey. […] Ostabolin-C™ is at least 4-fold safer than PTH-(1-34).

monkey = assay: Toxicity, 12 mth monkey; assay type: in vivo
Description: as §1

[2] = Ostabolin-C Inhalation Powder (OCIP) Phase I pharmacokinetics; assay type: in vivo; settings: female, human, blood
Description: A Phase I clinical study was undertaken using Ostabolin-C™ Inhalation Powder (OCIP) to establish an MTD in post-menopausal women, to compare its PK profile with Phase II sub-cutaneous doses, and to evaluate biological activity with cAMP and biomarkers of bone turnover. The OCIP was administered using the Nektar T-326 dry powder inhaler (DPI), which is well-accepted by osteoporosis patients in focus groups. An ascending dose tolerance was used. Each cohort was randomized and included 6 active patients and 2 placebo patients. The patients were post menopausal healthy females that were older than 40 years of age and had no known history of osteoporosis or other bone disease.
The primary measurements were taken at clinical laboratories where patient surveys were taken and the patient could describe any adverse events. Additionally the patients' vital signs were taken with Holter monitoring of EKGs and Spirometry. Pharmacokinetics, such as Ostabolin-C blood levels, PK parameters after a single dose and after 7 days of daily dosing were also measured. Pharmacodynamics were also monitored for changes in bone markers including P1NP, Osteocalcin, NTx, CTx, and urine cyclic AMP.

[3] = test system: post-menopausal women with low bone mineral density; assay: Phase II clinical study of subcutaneous Ostabolin-C in post-menopausal women with low BMD (BMD, bone markers, serum calcium, side effects); settings: for Sitting HR / Headache / HyperCa > 2.65 / HyperCa > 2.75 / N + H / Nausea: 4 months; for Headache / HyperCa > 2.65 / HyperCa > 2.75 / N + H / Nausea: unit assumed
Description: A four month Phase II clinical study was undertaken to investigate the safety, tolerability and efficacy of Ostabolin-C™ in post-menopausal women with low bone mineral density (BMD). […] The clinical protocol is a 16-week phase II randomized, double-blind, placebo-controlled, parallel group, dose finding study to investigate the safety, tolerability and efficacy of Ostabolin-C™ in post-menopausal women with low bone mineral density (BMD). In this study, 261 patients underwent four months of daily dosing of placebo and four active groups. The active groups included daily administration of Ostabolin-C™ in doses of 7.5, 15, 30, and 45 μg. Ostabolin-C™ is formulated as a clear, colorless liquid provided in pre-filled syringes and injected subcutaneously (SC). Subjects self-administer SC 0.1 mL injections of their assigned dose of Ostabolin-C™ 7.5, 15, 30, and 45 μg or placebo daily for 16 weeks in rotating quadrants of the abdomen. The subjects were post-menopausal women (for at least 5 years) with moderate osteoporosis.
The key endpoints for the study include change in mean BMD at the lumbar spine, as assessed by dual energy x-ray absorptiometry (DEXA), and measured by change from the Baseline visit. The Baseline visit is the first visit of the patient, before undergoing any treatment. Secondary efficacy endpoints include the following, as measured by change from Baseline visit:
DEXA: Bone formation and resorption markers: • Mean femoral neck BMD • Serum osteocalcin • Mean trochanter BMD • Serum amino terminal pro-peptide of type 1 pro-collagen (P1NP) • Mean total hip BMD • Mean radial BMD (distal and midshaft) • Bone specific alkaline phosphatase (BSAP) • Bone mineral content (BMC) • Serum C-telopeptide (CTx) • Bone area • Serum N-telopeptide (NTx)

**Q.** Which results are given for CC[C@H](C)[C@H](NC(=O)[C@H](CCC(=O)O)NC(=O)[C@H](CO)NC(=O)[C@@H](NC(=O)[C@@H](N)CO)C(C)C)C(=O)N[C@@H](CCC(N)=O)C(=O)N[C@@H](CC(C)C)C(=O)N[C@@H](CCSC)C(=O)N[C@@H](Cc1c[nH]cn1)C(=O)N[C@@H](CC(N)=O)C(=O)N[C@@H](CC(C)C)C(=O)NCC(=O)N[C@@H](CCCCN)C(=O)N[C@@H](Cc1c[nH]cn1)C(=O)N[C@@H](CC(C)C)C(=O)N[C@@H](CC(N)=O)C(=O)N[C@@H](CO)C(=O)N[C@@H](CCSC)C(=O)N[C@@H](CCC(=O)O)C(=O)N[C@@H](CCCN=C(N)N)C(=O)N[C@H](C(=O)N[C@H]1CCC(=O)NCCCC[C@@H](C(=O)N[C@@H](CC(C)C)C(=O)N[C@@H](CC(C)C)C(=O)N[C@@H](CCC(N)=O)C(=O)N[C@@H](CC(=O)O)C(=O)N[C@H](C(N)=O)C(C)C)NC(=O)[C@H](CCCN=C(N)N)NC(=O)[C@H](CC(C)C)NC(=O)[C@H](Cc2c[nH]c3ccccc23)NC1=O)C(C)C [Ostabolin-C, [Leu^27]cyclo[Glu^22-Lys^26]-PTH-(1-31)-NH2] (H-SVSEIQLMHNLGKHLNSMERVEWLRKLLQDV-NH2; lactam 22-26)?
**A.** % Cortical Porosity ([1]; F, 10 μg/kg/day): 3.2 ± 0.97%; % Cortical Porosity ([1]; F, 25 μg/kg/day): 4.0 ± 1.25%; % Cortical Porosity ([1]; F, 80 μg/kg/day): 10.6 ± 0.35%; % Cortical Porosity ([1]; M, 10 μg/kg/day): 3.7 ± 0.70%; % Cortical Porosity ([1]; M, 25 μg/kg/day): 5.8 ± 1.82%; % Cortical Porosity ([1]; M, 80 μg/kg/day): 16.4 ± 7.14 %; NOAEL at 12 mth (Toxicity, 12 mth monkey): 2 µg/kg; fold less nephrotoxic than PTH-(1-34) (monkey; 12 mth monkey): >4-fold less; hypercalaemic (DIFFERENCES column) (monkey; 12 mth monkey): Ostabolin-C not; Bone hypertrophy (monkey; Ostabolin C 0, 2, 10, 25 μg/kg, 12 mth monkey): hypertrophy all; fold safer than PTH-(1-34) (monkey; pre-clinical toxicity): at least 4 fold; nephrotoxicity (monkey; pre-clinical toxicity): nephrotoxic only in monkeys; Cmax ([2]; subcutaneous, Day 1, normalized to SC 45 μg): 0.0747 ng/mL; AUC(0-t) ([2]; subcutaneous, Day 1, normalized to SC 45 μg, read-out: AUC(0-4)): 0.0412 ng·h/mL; Tmax ([2]; Day 1, SC, averaged for all subjects): 13.2 min; half-life ([2]; Day 1, SC, averaged for all subjects, read-out: T½ (converted)): 37.2 min; Mean [Ca] ([3]; 30 μg (4 months)): 0.040 mmol/L; hypercalcemia seen at least once, % of group ([3]; 30 μg doses (placebo 5%)): 5%; Sitting HR ([3]; 30 ug): 2.4; Headache ([3]; 30 ug): 19.6%; HyperCa > 2.65 ([3]; 30 ug): 4.5%; HyperCa > 2.75 ([3]; 30 ug): 2.3%; N + H ([3]; 30 ug): 7.8%; Nausea ([3]; 30 ug): 25.5%; Mean [Ca] ([3]; 45 μg (4 months)): 0.070 mmol/L; Sitting HR ([3]; 45 ug): 4.0; Headache ([3]; 45 ug): 21.8%; HyperCa > 2.65 ([3]; 45 ug): 27.3%; HyperCa > 2.75 ([3]; 45 ug): 9.1%; N + H ([3]; 45 ug): 12.7%; Nausea ([3]; 45 ug): 29.1%; percent of abnormal serum calcium ([3]; doses up to and including 30 μg (FIG. 14)): no notable difference from placebo
